Assay results taken from article PMC4268243 (Nuclear medicine and biology, 2014).

Experiments:
[1] = system: MDA MB468 estrogen-independent breast carcinoma cells; assay: Amino acid uptake and inhibition in MDA MB468 cells; type: cell-based, human; settings: MDA MB468, 30 minutes incubation
A549 tumor xenograft = assay: Biodistribution in A549 tumor-bearing SCID mice; type: in vivo; settings: listed as (R)-[^18F] FAMP 1
U87 tumor xenograft = assay: Biodistribution in U87 tumor-bearing SCID mice; type: in vivo; settings: listed as (R)-[^18F] FAMP 1
[2] = system: human A549, DU145, U87, MDA MB468 and SKOV3 tumor cells; assay: Amino acid uptake and inhibition, summary over the five tumor cell lines; type: cell-based
[3] = system: rat orthotopic brain tumor model; settings: rat orthotopic brain tumor model, 60 min; cited from earlier work

**Q.** With `CC(N)(C[18F])C(=O)O` [(R)-[^18F]1] [2-amino-3-[^18F]fluoro-2-methylpropanoic acid] as the molecule, how does the Cell uptake ([1]; 10 mM BCH) read?
**A.** 3.0±0.4 % ID/5×10^5 cells

**Q.** What about the Cell uptake ([1]; 10 mM MeAIB) of the same molecule?
**A.** 4.4±0.2 % ID/5×10^5 cells

**Q.** What about the Cell uptake ([1]; Control (no inhibitor)) of the same molecule?
**A.** 5.7±0.3 % ID/5×10^5 cells

**Q.** What about the uptake in blood (A549 tumor xenograft; 15 min post injection) of the same molecule?
**A.** 2.9±0.4 %ID/g

**Q.** What about the uptake in bone (A549 tumor xenograft; 15 min post injection) of the same molecule?
**A.** 2.6±0.6 %ID/g

**Q.** And the uptake in brain (A549 tumor xenograft; 15 min post injection)?
**A.** 0.8±0.2 %ID/g

**Q.** And the uptake in heart (A549 tumor xenograft; 15 min post injection)?
**A.** 4.4±01.0 %ID/g

**Q.** And the uptake in kidney (A549 tumor xenograft; 15 min post injection)?
**A.** 18±3.5 %ID/g

**Q.** What about the uptake in liver (A549 tumor xenograft; 15 min post injection) of the same molecule?
**A.** 4.8±0.5 %ID/g

**Q.** And the uptake in lung (A549 tumor xenograft; 15 min post injection)?
**A.** 5.0±0.9 %ID/g

**Q.** And the uptake in muscle (A549 tumor xenograft; 15 min post injection)?
**A.** 2.0±0.4 %ID/g

**Q.** And the uptake in pancreas (A549 tumor xenograft; 15 min post injection)?
**A.** 54±14 %ID/g

**Q.** And the uptake in spleen (A549 tumor xenograft; 15 min post injection)?
**A.** 9.5±3.9 %ID/g

**Q.** And the uptake in tumor (A549 tumor xenograft; 15 min post injection)?
**A.** 9.9±1.7 %ID/g

**Q.** And the uptake in blood (A549 tumor xenograft; 30 min post injection)?
**A.** 2.0±0.2 %ID/g

**Q.** What about the uptake in bone (A549 tumor xenograft; 30 min post injection) of the same molecule?
**A.** 2.3±0.6 %ID/g

**Q.** What about the uptake in brain (A549 tumor xenograft; 30 min post injection) of the same molecule?
**A.** 0.9±0.2 %ID/g

**Q.** What about the uptake in heart (A549 tumor xenograft; 30 min post injection) of the same molecule?
**A.** 3.5±1.0 %ID/g

**Q.** And the uptake in kidney (A549 tumor xenograft; 30 min post injection)?
**A.** 10±1.9 %ID/g

**Q.** What about the uptake in liver (A549 tumor xenograft; 30 min post injection) of the same molecule?
**A.** 5.7±1.2 %ID/g

**Q.** What about the uptake in lung (A549 tumor xenograft; 30 min post injection) of the same molecule?
**A.** 3.1±1.0 %ID/g

**Q.** And the uptake in muscle (A549 tumor xenograft; 30 min post injection)?
**A.** 2.0±0.6 %ID/g

**Q.** And the uptake in pancreas (A549 tumor xenograft; 30 min post injection)?
**A.** 43±11 %ID/g

**Q.** What about the uptake in spleen (A549 tumor xenograft; 30 min post injection) of the same molecule?
**A.** 7.8±1.6 %ID/g

**Q.** What about the uptake in tumor (A549 tumor xenograft; 30 min post injection) of the same molecule?
**A.** 7.5±1.9 %ID/g

**Q.** And the uptake in blood (A549 tumor xenograft; 60 min post injection)?
**A.** 1.3±0.1 %ID/g

**Q.** What about the uptake in bone (A549 tumor xenograft; 60 min post injection) of the same molecule?
**A.** 2.0±0.6 %ID/g

**Q.** And the uptake in brain (A549 tumor xenograft; 60 min post injection)?
**A.** 1.1±0.3 %ID/g

**Q.** What about the uptake in heart (A549 tumor xenograft; 60 min post injection) of the same molecule?
**A.** 3.5±0.9 %ID/g

**Q.** And the uptake in kidney (A549 tumor xenograft; 60 min post injection)?
**A.** 6.6±1.0 %ID/g

**Q.** And the uptake in liver (A549 tumor xenograft; 60 min post injection)?
**A.** 5.3±1.1 %ID/g

**Q.** And the uptake in lung (A549 tumor xenograft; 60 min post injection)?
**A.** 2.3±0.5 %ID/g

**Q.** And the uptake in muscle (A549 tumor xenograft; 60 min post injection)?
**A.** 1.8±0.2 %ID/g

**Q.** And the uptake in pancreas (A549 tumor xenograft; 60 min post injection)?
**A.** 28±6.3 %ID/g

**Q.** And the uptake in spleen (A549 tumor xenograft; 60 min post injection)?
**A.** 5.1±1.8 %ID/g

**Q.** What about the uptake in tumor (A549 tumor xenograft; 60 min post injection) of the same molecule?
**A.** 7.7±1.9 %ID/g

**Q.** What about the uptake in blood (A549 tumor xenograft; 120 min post injection) of the same molecule?
**A.** 1.3±0.9 %ID/g

**Q.** What about the uptake in bone (A549 tumor xenograft; 120 min post injection) of the same molecule?
**A.** 2.2±1.1 %ID/g

**Q.** What about the uptake in brain (A549 tumor xenograft; 120 min post injection) of the same molecule?
**A.** 1.8±0.9 %ID/g

**Q.** And the uptake in heart (A549 tumor xenograft; 120 min post injection)?
**A.** 3.9±1.5 %ID/g

**Q.** And the uptake in kidney (A549 tumor xenograft; 120 min post injection)?
**A.** 5.5±3.1 %ID/g

**Q.** And the uptake in liver (A549 tumor xenograft; 120 min post injection)?
**A.** 7.1±2.4 %ID/g

**Q.** And the uptake in lung (A549 tumor xenograft; 120 min post injection)?
**A.** 1.9±0.6 %ID/g

**Q.** What about the uptake in muscle (A549 tumor xenograft; 120 min post injection) of the same molecule?
**A.** 2.3±1.2 %ID/g

**Q.** What about the uptake in pancreas (A549 tumor xenograft; 120 min post injection) of the same molecule?
**A.** 20±7.1 %ID/g

**Q.** What about the uptake in spleen (A549 tumor xenograft; 120 min post injection) of the same molecule?
**A.** 4.9±3.1 %ID/g

**Q.** And the uptake in tumor (A549 tumor xenograft; 120 min post injection)?
**A.** 8.8±4.8 %ID/g

**Q.** And the uptake in blood (U87 tumor xenograft; 15 min post injection)?
**A.** 3.2±0.2 %ID/g

**Q.** What about the uptake in bone (U87 tumor xenograft; 15 min post injection) of the same molecule?
**A.** 3.2±1.5 %ID/g

**Q.** What about the uptake in brain (U87 tumor xenograft; 15 min post injection) of the same molecule?
**A.** 0.8±0.2 %ID/g

**Q.** And the uptake in heart (U87 tumor xenograft; 15 min post injection)?
**A.** 4.7±1.2 %ID/g

**Q.** What about the uptake in kidney (U87 tumor xenograft; 15 min post injection) of the same molecule?
**A.** 23±2.5 %ID/g

**Q.** And the uptake in liver (U87 tumor xenograft; 15 min post injection)?
**A.** 7.6±2.9 %ID/g

**Q.** What about the uptake in lung (U87 tumor xenograft; 15 min post injection) of the same molecule?
**A.** 4.7±0.6 %ID/g

**Q.** What about the uptake in muscle (U87 tumor xenograft; 15 min post injection) of the same molecule?
**A.** 2.2±0.5 %ID/g

**Q.** What about the uptake in pancreas (U87 tumor xenograft; 15 min post injection) of the same molecule?
**A.** 62±6.3 %ID/g

**Q.** What about the uptake in spleen (U87 tumor xenograft; 15 min post injection) of the same molecule?
**A.** 19±6.4 %ID/g

**Q.** What about the uptake in tumor (U87 tumor xenograft; 15 min post injection) of the same molecule?
**A.** 6.5±1.2 %ID/g

**Q.** What about the uptake in blood (U87 tumor xenograft; 30 min post injection) of the same molecule?
**A.** 2.6±0.7 %ID/g

**Q.** And the uptake in bone (U87 tumor xenograft; 30 min post injection)?
**A.** 3.5±0.5 %ID/g

**Q.** And the uptake in brain (U87 tumor xenograft; 30 min post injection)?
**A.** 0.9±0.2 %ID/g

**Q.** And the uptake in heart (U87 tumor xenograft; 30 min post injection)?
**A.** 4.3±0.6 %ID/g

**Q.** What about the uptake in kidney (U87 tumor xenograft; 30 min post injection) of the same molecule?
**A.** 15±2.1 %ID/g

**Q.** What about the uptake in liver (U87 tumor xenograft; 30 min post injection) of the same molecule?
**A.** 7.7±1.5 %ID/g

**Q.** And the uptake in lung (U87 tumor xenograft; 30 min post injection)?
**A.** 3.4±0.5 %ID/g

**Q.** And the uptake in muscle (U87 tumor xenograft; 30 min post injection)?
**A.** 2.2±0.5 %ID/g

**Q.** What about the uptake in pancreas (U87 tumor xenograft; 30 min post injection) of the same molecule?
**A.** 43±8.2 %ID/g

**Q.** And the uptake in spleen (U87 tumor xenograft; 30 min post injection)?
**A.** 13±2.4 %ID/g

**Q.** And the uptake in tumor (U87 tumor xenograft; 30 min post injection)?
**A.** 6.0±0.9 %ID/g

**Q.** And the uptake in blood (U87 tumor xenograft; 60 min post injection)?
**A.** 1.6±0.4 %ID/g

**Q.** And the uptake in bone (U87 tumor xenograft; 60 min post injection)?
**A.** 3.2±0.8 %ID/g

**Q.** What about the uptake in brain (U87 tumor xenograft; 60 min post injection) of the same molecule?
**A.** 1.2±0.2 %ID/g

**Q.** What about the uptake in heart (U87 tumor xenograft; 60 min post injection) of the same molecule?
**A.** 4.2±0.9 %ID/g

**Q.** What about the uptake in kidney (U87 tumor xenograft; 60 min post injection) of the same molecule?
**A.** 8.0±1.8 %ID/g

**Q.** And the uptake in liver (U87 tumor xenograft; 60 min post injection)?
**A.** 6.9±1.4 %ID/g

**Q.** What about the uptake in lung (U87 tumor xenograft; 60 min post injection) of the same molecule?
**A.** 2.4±0.6 %ID/g

**Q.** What about the uptake in muscle (U87 tumor xenograft; 60 min post injection) of the same molecule?
**A.** 2.9±0.6 %ID/g

**Q.** What about the uptake in pancreas (U87 tumor xenograft; 60 min post injection) of the same molecule?
**A.** 28±5.0 %ID/g

**Q.** And the uptake in spleen (U87 tumor xenograft; 60 min post injection)?
**A.** 7.0±1.4 %ID/g

**Q.** And the uptake in tumor (U87 tumor xenograft; 60 min post injection)?
**A.** 4.2±0.3 %ID/g

**Q.** What about the uptake in blood (U87 tumor xenograft; 120 min post injection) of the same molecule?
**A.** 0.8±0.1 %ID/g

**Q.** What about the uptake in bone (U87 tumor xenograft; 120 min post injection) of the same molecule?
**A.** 1.5±0.2 %ID/g

**Q.** What about the uptake in brain (U87 tumor xenograft; 120 min post injection) of the same molecule?
**A.** 1.2±0.1 %ID/g

**Q.** What about the uptake in heart (U87 tumor xenograft; 120 min post injection) of the same molecule?
**A.** 3.6±0.4 %ID/g

**Q.** And the uptake in kidney (U87 tumor xenograft; 120 min post injection)?
**A.** 4.2±0.4 %ID/g

**Q.** And the uptake in liver (U87 tumor xenograft; 120 min post injection)?
**A.** 8.0±0.7 %ID/g

**Q.** What about the uptake in lung (U87 tumor xenograft; 120 min post injection) of the same molecule?
**A.** 1.3±0.2 %ID/g

**Q.** What about the uptake in muscle (U87 tumor xenograft; 120 min post injection) of the same molecule?
**A.** 1.6±0.2 %ID/g

**Q.** And the uptake in pancreas (U87 tumor xenograft; 120 min post injection)?
**A.** 15.1±3.2 %ID/g

**Q.** And the uptake in spleen (U87 tumor xenograft; 120 min post injection)?
**A.** 3.5±0.4 %ID/g

**Q.** What about the uptake in tumor (U87 tumor xenograft; 120 min post injection) of the same molecule?
**A.** 3.1±0.8 %ID/g

**Q.** What about the “inhibition of uptake by BCH” value ([2]; 10 mM BCH, relative to control, most cell lines) of the same molecule?
**A.** 36-68%

**Q.** And the “inhibition of uptake by MeAIB” value ([2]; 10 mM MeAIB, relative to control, most cell lines)?
**A.** 10-32%

**Q.** And the “uptake in tumor cells” value ([2]; 30 minutes incubation, without inhibitors, range over the cell lines)?
**A.** 5-9 %ID/5×10^5 cells

**Q.** What about the “amino acid transport system mediating uptake / selectivity” value ([2]; AAT cell inhibition assays with MeAIB and BCH) of the same molecule?
**A.** mixed AATs, likely but not limited to system A and system L

**Q.** What about the brain uptake [3] of the same molecule?
**A.** 0.1±0.02 %ID/g
